# Patent US6211244A, “Calcium receptor-active compounds” (priority 1995, dated 2001)
# Target: T1, human calcium receptor (Homo sapiens, UniProt P41180, R990G)
# T1 construct: expressed in transfected cells; host or cells: HEK 293
# T1 sequence (P41180 20-1078 R990G): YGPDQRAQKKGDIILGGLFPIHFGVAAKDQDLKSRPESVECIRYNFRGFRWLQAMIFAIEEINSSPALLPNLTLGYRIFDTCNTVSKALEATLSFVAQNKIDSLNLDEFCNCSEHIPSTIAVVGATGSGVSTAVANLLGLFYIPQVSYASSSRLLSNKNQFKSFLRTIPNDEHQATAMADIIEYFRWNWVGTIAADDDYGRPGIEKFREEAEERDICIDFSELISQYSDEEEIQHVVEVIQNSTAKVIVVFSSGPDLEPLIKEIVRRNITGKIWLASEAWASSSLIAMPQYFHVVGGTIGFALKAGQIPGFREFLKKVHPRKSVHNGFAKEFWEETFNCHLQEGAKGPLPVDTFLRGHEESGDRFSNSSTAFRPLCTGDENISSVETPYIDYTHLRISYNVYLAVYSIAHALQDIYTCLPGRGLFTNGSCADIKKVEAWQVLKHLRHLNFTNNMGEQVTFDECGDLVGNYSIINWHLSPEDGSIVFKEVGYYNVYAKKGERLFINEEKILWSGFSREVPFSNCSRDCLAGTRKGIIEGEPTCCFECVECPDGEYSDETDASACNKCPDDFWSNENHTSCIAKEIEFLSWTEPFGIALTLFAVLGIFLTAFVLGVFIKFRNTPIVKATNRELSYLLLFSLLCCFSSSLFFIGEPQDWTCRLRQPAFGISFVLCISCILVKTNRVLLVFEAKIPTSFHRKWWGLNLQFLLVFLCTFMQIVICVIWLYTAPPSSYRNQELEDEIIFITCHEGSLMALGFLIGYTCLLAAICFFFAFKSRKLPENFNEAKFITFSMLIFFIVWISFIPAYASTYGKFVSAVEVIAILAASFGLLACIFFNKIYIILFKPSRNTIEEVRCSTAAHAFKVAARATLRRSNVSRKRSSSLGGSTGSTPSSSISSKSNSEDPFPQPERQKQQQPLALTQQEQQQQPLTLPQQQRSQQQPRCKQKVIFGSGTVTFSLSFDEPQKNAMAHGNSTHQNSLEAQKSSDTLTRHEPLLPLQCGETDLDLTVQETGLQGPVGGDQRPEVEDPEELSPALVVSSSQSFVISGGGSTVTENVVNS
# Assay: increases in [Ca^2+ ]i in HEK-293 cells expressing the human calcium receptor (fura-2 loaded HEK 293/pHuPCaR4.0 cells), % activity
# Type: cell-based
Compound,% activity (33 ng/mL) [%],% activity (330 ng/mL) [%],% activity (3300 ng/mL) [%],"% activity (330 ng/mL, listed as 4U) [%]"
C[C@@H](N[C@H](C)c1cccc2ccccc12)c1ccccc1 [Compound 14O],102,119,119,
CC(NC(C)c1cccc2ccccc12)c1ccccc1 (centres unmarked) [Compound 14P],78,103,112,
C[C@@H](N[C@H](C)c1cccc2ccccc12)c1cccc(Cl)c1 [Compound 14Q],78,101,,
CC(NC(C)c1cccc2ccccc12)c1ccc(Cl)cc1 (centres unmarked) [Compound 14S],105,106,116,
COc1cccc(C(C)NC(C)c2cccc3ccccc23)c1 (centres unmarked) [Compound 14Z],82,103,118,
COc1cccc(CCNC(C)c2cccc3ccccc23)c1 (centres unmarked) [Compound 15I],75,93,111,
COc1ccc(CCNC(C)c2cccc3ccccc23)cc1 (centres unmarked) [Compound 15J],64,75,80,
COc1ccccc1CCCN[C@H](C)c1cccc2ccccc12 [Compound 16I],96,117,121,
COc1ccc(C(C)NC(C)c2cccc3ccccc23)cc1 (centres unmarked) [Compound 16J],47,76,92,
"COc1ccc([C@@H](C)N[C@H](C)c2cccc(OC)c2)cc1 [Compound 16L, (R,R)-N-[1-(4-methoxyphenyl)ethyl]-1-(3-methoxyphenyl)ethylamine]",98,138,146,
"COc1ccc([C@@H](C)N[C@@H](C)c2cccc(OC)c2)cc1 [Compound 16M, (S,R)-N-[1-(4-methoxyphenyl)ethyl]-1-(3-methoxyphenyl)ethylamine]",11,68,130,
COc1cccc(C(C)NC(C)c2cccc(OC)c2)c1 (centres unmarked) [Compound 16N],82,159,122,
COc1cccc(C(C)NC(C)c2cccc(OC)c2)c1 (centres unmarked) [Compound 16O],21,81,129,
C[C@@H](NCc1ccc2c(c1)OCO2)c1cccc2ccccc12 [Compound 16R],76,100,,
COc1cc(C)c(CN[C@H](C)c2cccc3ccccc23)cc1C [Compound 16U],50,85,,
CCOc1ccc(CN[C@H](C)c2cccc3ccccc23)cc1 [Compound 16W],73,102,,
C[C@@H](NCc1ccc(C#N)cc1)c1cccc2ccccc12 [Compound 16Z],51,88,,
CC(=O)c1ccc(CN[C@H](C)c2cccc3ccccc23)cc1 [Compound 17C],99,120,113,
C[C@@H](NCc1ccc(Br)cc1)c1cccc2ccccc12 [Compound 17D],91,108,,
C[C@@H](NCc1ccc(I)cc1)c1cccc2ccccc12 [Compound 17E],110,110,116,
C[C@@H](NCc1ccc(C(F)(F)F)cc1)c1cccc2ccccc12 [Compound 17F],90,111,,
COc1ccc(C(N[C@H](C)c2cccc3ccccc23)C2CC2)cc1 (some centres unmarked) [Compound 17H],111,124,126,
CC(NC(C)c1cccc2ccccc12)c1ccc(Cl)c(Cl)c1 (centres unmarked) [Compound 17J],122,118,116,
CC(NC(C)c1cccc2ccccc12)c1ccc(Cl)c(Cl)c1 (centres unmarked) [Compound 17K],73,97,98,
COc1ccc(CN[C@H](C)c2cccc3ccccc23)c(C)c1C [Compound 17L],78,104,111,

Compound,% activity (33 ng/mL) [%],% activity (330 ng/mL) [%],% activity (3300 ng/mL) [%],"% activity (330 ng/mL, listed as 4U) [%]"
"COc1ccc(CN[C@H](C)c2cccc3ccccc23)cc1Cl.Cl [Compound 17M, N-(3-chloro-4-methoxybenzyl)-(R)-1-(1-naphthyl) ethylamine hydrochloride]",99,115,,
Cc1ccc([C@@H](C)N[C@H](C)c2cccc3ccccc23)cc1C [Compound 17N],86,108,,
COc1cccc([C@@H](C)NCCCc2ccccc2I)c1 [Compound 17R],65,98,,
COc1ccc(CNCc2ccccc2OC)cc1C [Compound 17V],27,66,91,
Cc1cc(C(C)NC(C)c2cccc3ccccc23)ccc1O (centres unmarked) [Compound 17W],67,92,,
COc1ccc(CNCc2cccc3ccccc23)cc1C [Compound 17Y],79,94,109,
COc1ccc(CNC(C)c2cccc3ccccc23)cc1C (centres unmarked) [Compound 17Z],73,99,,
COc1ccc(CNC(C)c2ccc(F)c3ccccc23)cc1C (centres unmarked) [Compound 18A],88,111,,
COc1ccc(CNC(C)c2c(OC)ccc3ccccc23)cc1C (centres unmarked) [Compound 18B],69,96,111,
COc1ccc(CNC(C)c2ccc(OC)c3ccccc23)cc1C (centres unmarked) [Compound 18C],60,87,99,
COc1ccc(CNC(C)c2cccc(-c3ccccc3)c2)cc1C (centres unmarked) [Compound 18T],52,74,99,
C[C@@H](NCCCc1ccccc1Cl)c1cccc(OCC(F)(F)F)c1 [Compound 20Y],74,95,117,
COc1cccc([C@@H](C)NC(C)CCc2ccccc2Cl)c1 (some centres unmarked) [Compound 21C = 4U],,,,72
"COc1cccc([C@@H](C)N[C@@H](C)CCc2ccccc2)c1 [Compound 21E, (S,R)-N-(4-pbenyl-2-butyl)-1-(3-methoxyphenyl)ethylamine]",64,94,,
COc1cccc([C@@H](C)NCCCc2cccc(OC(F)(F)F)c2)c1 [Compound 21M],58,102,,
COc1cccc([C@@H](C)NCCCc2ccc(OC(F)(F)F)cc2)c1 [Compound 21N],42,98,124,
COc1cccc([C@@H](C)NCCCc2ccccc2C(F)(F)F)c1 [Compound 21O],75,109,,
COc1cccc([C@@H](C)NCCCc2cccc(C(F)(F)F)c2)c1 [Compound 21P],56,92,,
COc1cccc([C@@H](C)NCCCc2ccccc2F)c1 [Compound 21R],66,100,,
CCCOc1cccc([C@@H](C)NCCCc2ccccc2Cl)c1 [Compound 21S],85,131,132,
CC(C)Oc1cccc([C@@H](C)NCCCc2ccccc2Cl)c1 [Compound 21T],53,112,133,
C[C@@H](NCCCc1ccccc1Cl)c1cccc(OCC(F)F)c1 [Compound 21V],99,116,122,
COc1cccc([C@@H](C)N[C@@H](C)CCc2cccc(C(F)(F)F)c2)c1 [Compound 21X],51,101,119,
"COc1cccc([C@@H](C)N[C@H](C)CCc2cccc(C(F)(F)F)c2)c1 [Compound 21Y, (R,R)-N-[4-(3-trifluoromethylphenyl)-2-butyl]-1-(3-methoxyphenyl)ethylamine]",68,100,,
C[C@@H](NCCCc1cccc(C(F)(F)F)c1)c1cccc2ccccc12 [Compound 22J],71,99,,
